Results reported in patent US10273235B2, “Compositions and methods for inhibiting β-lactamase” (LegoChem Biosciences, Inc., priority 2015, dated 2019).
Several values for one entry are separate records, joined by “and”; a condition that tells them apart may be missing. Identical values can stand only once. Like-named read-outs stand apart in the source and are kept apart here.

Assays:
Assay type in all cases: cell-based
K. pneumoniae 7586 = assay: BLI potentiation MIC, K. pneumoniae 7586; conditions: no BLI, incubation 19 h
Method: (§1) MIC90 (μg/mL) is the lowest concentration of an antibiotic that will inhibit the visible growth of 90% of microorganisms after incubation as compared with a control group to which the antibiotic is not treated.
(§2) MIC values were measured by the broth microdilution method developed by the Clinical and Laboratory Standards Institute (CLSI) (see CLSI M07-A9, Methods for Dilution Antimicrobial Susceptibility Test for Bacteria that Grow Aerobically; Approved Standard-Ninth Edition (2012): CLSI, Villanova, Pa.). The in vitro antibacterial activity was measured with respect to the following 9 clinical isolates: P. aeruginosa (3 strains); K. pneumoniae (6 strains). The in vitro antibacterial activity of selected compounds was measured with respect to the following 15 clinical isolates: K. pneumoniae (15 strains).

K. pneumoniae 89 = assay: BLI potentiation MIC, K. pneumoniae 89; conditions: no BLI, incubation 19 h
Method: as §1, §2

K. pneumoniae 5216 = assay: BLI potentiation MIC, K. pneumoniae 5216 (TEM-1A); conditions: no BLI, incubation 19 h; for MIC: Klebsiella pneumoniae, 5216, 19 h
Method: as §1, §2

P. aeruginosa ARC3514 = assay: BLI potentiation MIC, P. aeruginosa ARC3514 (KPC-2, OprD−, AmpC); conditions: no BLI, incubation 19 h; for MIC: Pseudomonas aeruginosa, ARC3514, 19 h
Method: as §1, §2

K. pneumoniae 5117 = assay: BLI potentiation MIC, K. pneumoniae 5117 (SHV-11, TEM-1); conditions: no BLI, incubation 19 h; for MIC: Klebsiella pneumoniae, 5117, 19 h
Method: as §1, §2

K. pneumoniae 5971(KOX) = assay: BLI potentiation MIC, K. pneumoniae 5971(KOX); conditions: no BLI, incubation 19 h; for MIC: Klebsiella pneumoniae, 19 h
Method: as §1, §2

K. pneumoniae 5576 = assay: BLI potentiation MIC, K. pneumoniae 5576 (SHV-11, CMY-2, DHA-1, TEM-1); conditions: no BLI, incubation 19 h; for MIC: Klebsiella pneumoniae, 5576, 19 h
Method: as §1, §2

K. pneumoniae 6839 = assay: BLI potentiation MIC, K. pneumoniae 6839 (SHV-11, SHV-12, DHA-1); conditions: no BLI, incubation 19 h; for MIC: Klebsiella pneumoniae, 6839, 19 h
Method: as §1, §2

K. pneumoniae 101 = assay: BLI potentiation MIC, K. pneumoniae 101; conditions: no BLI, incubation 19 h; for MIC: Klebsiella pneumoniae, 101, 19 h
Method: as §1, §2

K. pneumoniae 100 = assay: BLI potentiation MIC, K. pneumoniae 100; conditions: Klebsiella pneumoniae, 100, no BLI, incubation 19 h
Method: as §1, §2

K. pneumoniae MP14 = assay: BLI potentiation MIC, K. pneumoniae MP14; conditions: no BLI, incubation 19 h; for MIC: Klebsiella pneumoniae, MP14, 19 h
Method: as §1, §2

K. pneumoniae CL5761 = assay: MIC of strain used for extraction of enzymes, K. pneumoniae CL5761 (KPC-3, TEM-216, SHV-5); conditions: Klebsiella pneumoniae, CL5761, no BLI
Method: as §1, §2

K. pneumoniae NDM-506 = assay: BLI potentiation MIC, K. pneumoniae NDM-506; conditions: Klebsiella pneumoniae, NDM506, no BLI, incubation 19 h
Method: as §1, §2

K. pneumoniae KU2 = assay: BLI potentiation MIC, K. pneumoniae KU2; conditions: Klebsiella pneumoniae, no BLI, incubation 19 h
Method: as §1, §2

K. pneumoniae 3784 = assay: BLI potentiation MIC, K. pneumoniae 3784 (SHV-11, SHV-12, DHA-1); conditions: no BLI, incubation 19 h; for MIC: Klebsiella pneumoniae, 3784, 19 h
Method: as §1, §2

P. aeruginosa ARC3506 = assay: BLI potentiation MIC, P. aeruginosa ARC3506 (VEB-1, OXA-10, OprD−, AmpC); conditions: Pseudomonas aeruginosa, ARC3506, no BLI, incubation 19 h
Method: as §1, §2

P. aeruginosa ATCC27853 = assay: BLI potentiation MIC (broth microdilution), P. aeruginosa ATCC27853 (PoxB, AmpC); conditions: no BLI, incubation 19 h; for MIC: Pseudomonas aeruginosa, ATCC27853, 19 h
Method: as §1, §2

E. coli TOPDXA048 = assay: MIC of strain used for extraction of enzymes, E. coli TOPDXA048 (OXA-48, TEM-116, AmpC (NC_000913)); conditions: Escherichia coli
E. coli ECO200 = assay: MIC of strain used for extraction of enzymes, E. coli ECO200 (NDM-1, TEM-1, CTX-M-15, EC (AmpC), OXA-2 type); conditions: Escherichia coli
K. pneumoniae 4248 = assay: BLI potentiation MIC, K. pneumoniae 4248 (SHV-11, CTX-M-15, TEM-1, OXA-1); conditions: no BLI, incubation 19 h; for MIC: Klebsiella pneumoniae, 4248, 19 h
Method: as §1, §2

E. aerogenes K9911729 = assay: MIC of strain used for extraction of enzymes, E. aerogenes K9911729 (CMY-10, TEM-1, SHV-12, AmpC (DQ478697)); conditions: Klebsiella aerogenes, K9911729, no BLI
E. coli K0519020 = assay: MIC of strain used for extraction of enzymes, E. coli K0519020 (CTX-M-15, TEM-1, OXA-1, AmpC (NC_000913)); conditions: Escherichia coli, K0519020, no BLI
K. pneumoniae 6540 = assay: BLI potentiation MIC, K. pneumoniae 6540; conditions: no BLI, incubation 19 h
Method: as §1, §2

K. pneumoniae 4006 = assay: BLI potentiation MIC, K. pneumoniae 4006 (SHV-12, CTX-M-15, TEM-1, OXA-9); conditions: no BLI, incubation 19 h
Method: as §1, §2

K. pneumoniae ATCC700603 = assay: BLI potentiation MIC, K. pneumoniae ATCC700603 (SHV-3); conditions: no BLI, incubation 19 h
Method: as §1, §2

[1] = read-out: MIC of LCB10-0200 alone
[2] = read-out: MIC of Meropenem alone

## CC(C)(O/N=C(\C(=O)N[C@@H]1C(=O)N2C(C(=O)[O-])=C(C[n+]3cnc(N)c(NCCNC(=O)c4cc(=O)c(O)cn4O)c3)CS[C@H]12)c1nc(N)sc1Cl)C(=O)O [LCB10-0200]
K. pneumoniae 7586; Klebsiella pneumoniae, 7586, 19 h, read-out: MIC of LCB10-0200 alone
  MIC: 4 µg/mL
K. pneumoniae 7586
  MIC of LCB10-0200 alone: 2 μg/mL
K. pneumoniae 89; Klebsiella pneumoniae, 89, 19 h, read-out: MIC of LCB10-0200 alone
  MIC: 0.125 µg/mL
K. pneumoniae 89
  MIC of LCB10-0200 alone: 0.0625 μg/mL
K. pneumoniae 5216; [1]
  MIC: > 64 µg/mL
K. pneumoniae 5216
  MIC of LCB10-0200 alone: 64 μg/mL and 32 μg/mL
P. aeruginosa ARC3514; [1]
  MIC: 0.25 µg/mL
P. aeruginosa ARC3514
  MIC of LCB10-0200 alone: 0.5 μg/mL
K. pneumoniae 5117; [1]
  MIC: 0.125 µg/mL
K. pneumoniae 5117
  MIC of LCB10-0200 alone: 0.25 μg/mL
K. pneumoniae 5971(KOX); [1]
  MIC: 32 µg/mL
K. pneumoniae 5971(KOX)
  MIC of LCB10-0200 alone: 64 μg/mL
K. pneumoniae 5576; [1]
  MIC: > 64 µg/mL
K. pneumoniae 5576
  MIC of LCB10-0200 alone: 64 μg/mL and 32 μg/mL
K. pneumoniae 6839; [1]
  MIC: 32 µg/mL
K. pneumoniae 6839
  MIC of LCB10-0200 alone: 16 μg/mL
K. pneumoniae 101; [1]
  MIC: 16 µg/mL
K. pneumoniae 101
  MIC of LCB10-0200 alone: 32 μg/mL
K. pneumoniae 100; [1]
  MIC: 0.0625 µg/mL
K. pneumoniae MP14; [1]
  MIC: 0.125 µg/mL
K. pneumoniae MP14
  MIC of LCB10-0200 alone: 0.25 μg/mL
K. pneumoniae CL5761; [1]
  MIC: 32 µg/mL
K. pneumoniae NDM-506; [1]
  MIC: > 64 µg/mL
K. pneumoniae KU2; [1]
  MIC: 32 µg/mL
K. pneumoniae 3784; [1]
  MIC: 32 µg/mL
K. pneumoniae 3784
  MIC of LCB10-0200 alone: 64 μg/mL
P. aeruginosa ARC3506; [1]
  MIC: 2 µg/mL
P. aeruginosa ATCC27853; [1]
  MIC: 0.25 µg/mL
P. aeruginosa ATCC27853
  MIC of LCB10-0200 alone: 0.5 μg/mL
E. coli TOPDXA048; TOPDXA048, read-out: MIC of LCB10-0200 alone
  MIC: 0.25 µg/mL
E. coli ECO200; ECO200, read-out: MIC of LCB10-0200 alone
  MIC: > 64 µg/mL
K. pneumoniae 4248; [1]
  MIC: 2 µg/mL
K. pneumoniae 4248
  MIC of LCB10-0200 alone: 4 μg/mL
E. aerogenes K9911729; [1]
  MIC: 2 µg/mL
E. coli K0519020; [1]
  MIC: 64 µg/mL

## C[C@@H](O)[C@H]1C(=O)N2C(C(=O)O)=C(S[C@@H]3CN[C@H](C(=O)N(C)C)C3)[C@H](C)[C@H]12 [Meropenem]
K. pneumoniae 5216; [2]
  MIC: 64 µg/mL
K. pneumoniae 5216
  MIC of Meropenem alone: 32 µg/mL
P. aeruginosa ARC3514; [2]
  MIC: > 64 µg/mL
K. pneumoniae 6540; Klebsiella pneumoniae, 6540, 19 h, read-out: MIC of Meropenem alone
  MIC: 1 µg/mL
K. pneumoniae 6540
  MIC of Meropenem alone: 0.5 µg/mL
K. pneumoniae 5117; [2]
  MIC: 8 µg/mL
K. pneumoniae 5117
  MIC of Meropenem alone: 4 µg/mL
K. pneumoniae 5971(KOX); [2]
  MIC: 64 µg/mL
K. pneumoniae 5971(KOX)
  MIC of Meropenem alone: 32 µg/mL
K. pneumoniae 5576; [2]
  MIC: 1 µg/mL
K. pneumoniae 5576
  MIC of Meropenem alone: 2 µg/mL
K. pneumoniae 4006; Klebsiella pneumoniae, 4006, 19 h, read-out: MIC of Meropenem alone
  MIC: 0.5 µg/mL
K. pneumoniae 4006
  MIC of Meropenem alone: 1 µg/mL
K. pneumoniae 6839; [2]
  MIC: 4 µg/mL
K. pneumoniae 6839
  MIC of Meropenem alone: 2 µg/mL
K. pneumoniae 101; [2]
  MIC: > 64 µg/mL
K. pneumoniae 101
  MIC of Meropenem alone: 64 µg/mL and 32 µg/mL
K. pneumoniae 100; [2]
  MIC: 4 µg/mL
K. pneumoniae MP14; [2]
  MIC: > 64 µg/mL
K. pneumoniae MP14
  MIC of Meropenem alone: 64 µg/mL
K. pneumoniae CL5761; [2]
  MIC: > 64 µg/mL
K. pneumoniae NDM-506; [2]
  MIC: > 64 µg/mL
K. pneumoniae ATCC700603; Klebsiella pneumoniae, ATCC700603, 19 h, read-out: MIC of Meropenem alone
  MIC: 0.125 µg/mL
K. pneumoniae ATCC700603
  MIC of Meropenem alone: 0.25 µg/mL
K. pneumoniae KU2; [2]
  MIC: > 64 µg/mL
K. pneumoniae 3784; [2]
  MIC: 2 µg/mL
P. aeruginosa ARC3506; [2]
  MIC: 64 µg/mL
P. aeruginosa ATCC27853; [2]
  MIC: 2 µg/mL
E. coli TOPDXA048; TOPDXA048, read-out: MIC of Meropenem alone
  MIC: 0.25 µg/mL
E. coli ECO200; ECO200, read-out: MIC of Meropenem alone
  MIC: > 64 µg/mL
K. pneumoniae 4248; [2]
  MIC: 0.125 µg/mL
E. aerogenes K9911729; [2]
  MIC: 0.5 µg/mL
E. coli K0519020; [2]
  MIC: 1 µg/mL
